Assay results as given in US20200315996A1 (Board of Trustees, Southern Illinois University, priority 2016, published 2020).

How the values were obtained:
[1] = rats; cited from earlier work
[2] = ORGANIZATION WH, 2002; cited from earlier work
MKI67 (Ki67) = experiment: Immunohistochemistry of endometriotic lesions, MKI67 (cell proliferation); assay type: in vivo, mice; settings: 3 weeks; for % of MKI67 positive cells/total cells/0.007 mm^2, Stroma: control 13.8 ± 1.4
Text: (§1) The presence and location of different proteins in the tissues obtained from the recipient mice. Samples of uterine tissue were isolated from the recipient mice, fixed by standard histological methods, and embedded in paraffin. Thin sections (5 μm) of the paraffin-embedded tissues were screened with standard immunohistochemical methods using antibodies to identify the expression of in the uterine tissues.
(§2) Primary antibodies that recognized MKI67 (Ki67), PECAM1 (CD31), ESR1, PGR, p-CHUK (IKK), p-STAT3, NOS2 (iNOS) and PTGS2 (COX2), and Vectastain Elite ABC Kit (# PK-6101), Mouse on Mouse Basic Kit (# BMK-2202, Vector laboratories) or DyLight-conjugated secondary antibody (#711-516-152, Jackson ImmunoResearch Lab) were used to show the presence of the proteins in the tissues, which were examined under microscopes.
(§3) The primary antibodies used in these analyses were: anti-MKI67 (Ki67, 1:200 dilution, 550609, BD Biosciences), anti-PECAM1 (CD31, 1:100 dilution, ab28364, Abcam), anti-ESR1 (1:100 dilution, sc-542, Santa Cruz Biotechnology), anti-PGR (1:200 dilution, RB-9017-P0, Thermo Scientific), anti-p-CHUK (IKK, 1:150 dilution, 2697, Cell Signaling Technology), anti-p-STAT3 (1:50 dilution, 9145, Cell Signaling Technology), anti-NOS2 (iNOS, 1:50 dilution, 610333, BD Biosciences) and anti-PTGS2 (COX2, 1:50 dilution, RM-9121, Thermo Scientific).
(§4) The expression of MKI67, ESR1, PGR, p-CHUK, p-STAT3, NOS2 and PTGS2 proteins in uterine tissues, as determined by immunohistochemical analysis of uterine tissue sections, was semiquantitatively analyzed. Levels of apoptosis were analyzed by TUNEL assay and also semiquantitatively analyzed. Histological sections were obtained from 4 different lesions. For each section, three different areas measuring 0.007 mm^2 were chosen. In each of those areas, the total number of epithelial or stromal cells was counted, as was the number of cells that tested positive for expressing MKI67 (a marker of cellular proliferation), steroid receptors ESR1 and PGR, and inflammatory signaling molecules p-CHUK, p-STAT3, NOS2 and PTGS2 proteins.

apoptosis = experiment: TUNEL assay of endometriotic lesions; assay type: in vivo, mice; settings: 3 weeks, control 8.7 ± 1.3
Method: The TUNEL assay is another immunohistological method used to show the amount of apoptosis, or programmed cell death, present in the uterine tissues. The TUNEL assay was performed on sections of uterine tissue according to manufacturer's instructions using ApopTag Fluorescein In Situ Apoptosis Detection Kit (# S7160, Millipore). The TUNEL assay, which identifies cells undergoing apoptosis, was semiquantitatively analyzed using areas of 0.02 mm^2 (3 different areas counted from each section, with sections obtained from 4 different lesions), and semiquantitatively analyzed.

ESR1 = experiment: Immunohistochemistry of endometriotic lesions, ESR1; assay type: in vivo, mice; settings: 3 weeks; for % of ESR1 positive cells/total cells/0.007 mm^2, Stroma: control 45.6 ± 6.9; for % of ESR1 positive cells/total cells/0.007 mm^2, Epithelium: control 79.1 ± 3.7
Text: as §1, §2, §3, §4

NOS2 (iNOS) = experiment: Immunohistochemistry of endometriotic lesions, NOS2; assay type: in vivo, mice; settings: 3 weeks; for % of NOS2 positive cells/total cells/0.007 mm^2, Stroma: control 75.2 ± 4.6
Text: as §4, with “The presence and location of different proteins in the tissues obtained from the recipient mice. Samples of uterine tissue were isolated from the recipient mice, fixed by standard histological methods, and embedded in paraffin. Thin sections (5 μm) of the paraffin-embedded tissues were screened with standard immunohistochemical methods using antibodies to identify the expression of in the uterine tissues. […] The expression” for “The expression”, “semiquantitatively analyzed. […] Histological sections” for “semiquantitatively analyzed. Histological sections”

female mice = experiment: Effect of oral niclosamide on reproductive function (Study 2); assay type: in vivo
Method: The sham surgery was performed following the same steps as the endometriosis surgery except that no donor tissues were implanted onto the peritoneal walls of those mice; only sutures were applied to the peritoneal walls.
The recipient mice continued receiving oral daily niclosamide treatments until mouse pups were born, after which niclosamide treatment was discontinued. Three weeks after the pups were born, on postnatal day (PND) 21, the recipient mice were necropsied and the pups were weaned.
For each mated mouse, the following parameters were measured and recorded: the time of the formation of the vaginal plug after mating (days); the length of time that the mated mouse gestated or was pregnant (days); the number of pups born to each mated mouse; and the size and volume of the endometriotic lesions harvested from the mice after necropsy. Tissues were harvested from the mice, including endometriotic lesions and peritoneal walls to analyze the expression of proteins and genes of interest.
For each pup born to a mated mouse, its weight (g) at birth and on PND 21 was measured.

p-CHUK (IKK) = experiment: Immunohistochemistry of endometriotic lesions, p-CHUK; assay type: in vivo, mice; settings: 3 weeks
Text: as §4, with “The presence and location of different proteins in the tissues obtained from the recipient mice. Samples of uterine tissue were isolated from the recipient mice, fixed by standard histological methods, and embedded in paraffin. Thin sections (5 μm) of the paraffin-embedded tissues were screened with standard immunohistochemical methods using antibodies to identify the expression of in the uterine tissues. […] The expression” for “The expression”, “semiquantitatively analyzed. […] Histological sections” for “semiquantitatively analyzed. Histological sections”

rats = settings: orally for 4 weeks; cited from earlier work

O=C(Nc1ccc([N+](=O)[O-])cc1Cl)c1cc(Cl)ccc1O [niclosamide, 5-chloro-N-(2-chloro-4-nitrophenyl)-2-hydroxybenzamide]
plasma half-life [1]: 7 h
water solubility [2]: < 20 µM
% of MKI67 positive cells/total cells/0.007 mm^2, Stroma (MKI67 (Ki67); 100 mg/kg b.w./day oral): 10.9 ± 1.9%
% of MKI67 positive cells/total cells/0.007 mm^2, Epithelium (MKI67 (Ki67); 100 mg/kg b.w./day oral, control 61.6 ± 5.9, 100 mg/kg/day): 50.1±7.9%
% of MKI67 positive cells/total cells/0.007 mm^2, Epithelium (MKI67 (Ki67); 100 mg/kg b.w./day oral, control 61.6 ± 5.9, listed as Niclosamide, 100 mg/kg/day): 50.1 ± 7.9%
% of MKI67 positive cells/total cells/0.007 mm^2, Stroma (MKI67 (Ki67); 200 mg/kg b.w./day oral): 7.9 ± 1.9%
% of MKI67 positive cells/total cells/0.007 mm^2, Epithelium (MKI67 (Ki67); 200 mg/kg b.w./day oral, control 61.6 ± 5.9, p < 0.05, 200 mg/kg/day): 37.7±7.2%
% of MKI67 positive cells/total cells/0.007 mm^2, Epithelium (MKI67 (Ki67); 200 mg/kg b.w./day oral, control 61.6 ± 5.9, p < 0.05, listed as Niclosamide, 200 mg/kg/day): 37.7 ± 7.2 %
Cell number of TUNEL positive cells/0.02 mm^2 (apoptosis; 100 mg/kg b.w./day oral): 8.2 ± 1.3 cells/0.02 mm^2
Cell number of TUNEL positive cells/0.02 mm^2 (apoptosis; 200 mg/kg b.w./day oral): 7.8 ± 1.0 cells/0.02 mm^2
% of ESR1 positive cells/total cells/0.007 mm^2, Stroma (ESR1; 100 mg/kg b.w./day oral): 55.9 ± 5.5%
% of ESR1 positive cells/total cells/0.007 mm^2, Epithelium (ESR1; 100 mg/kg b.w./day oral): 96.6 ± 2.0%
% of ESR1 positive cells/total cells/0.007 mm^2, Stroma (ESR1; 200 mg/kg b.w./day oral): 37.7 ± 5.7%
% of ESR1 positive cells/total cells/0.007 mm^2, Epithelium (ESR1; 200 mg/kg b.w./day oral): 82.6 ± 5.6%
% of NOS2 positive cells/total cells/0.007 mm^2, Stroma (NOS2 (iNOS); 100 mg/kg b.w./day oral): 57.8 ± 4.3%
% of NOS2 positive cells/total cells/0.007 mm^2, Epithelium (NOS2 (iNOS); 100 mg/kg b.w./day oral, control 99.5 ± 0.4): 99.5 ± 0.5%
% of NOS2 positive cells/total cells/0.007 mm^2, Stroma (NOS2 (iNOS); 200 mg/kg b.w./day oral): 61.9 ± 5.7%
% of NOS2 positive cells/total cells/0.007 mm^2, Epithelium (NOS2 (iNOS); 200 mg/kg b.w./day oral, control 99.5 ± 0.4, p < 0.05): 86.2 ± 5.9 %
time to receive vaginal plug, between the groups (female mice; 0 or 200 mg/kg b.w./day oral, mated after 4 days of treatment): No significant differences
pregnancy and birth in recipient mice exposed to niclosamide (female mice; 200 mg/kg b.w./day oral until pups were born): became pregnant and gave birth
gestational length, number of pups, and weight of pups at birth and on PND21 (female mice; 200 mg/kg b.w./day oral until pups were born vs 0): did not cause any differences
% of p-CHUK positive cells/total cells/0.007 mm^2, Stroma (p-CHUK (IKK); 100 mg/kg b.w./day oral, control 83.4 ± 4.7): 86.3 ± 4.0%
% of p-CHUK positive cells/total cells/0.007 mm^2, Epithelium (p-CHUK (IKK); 100 mg/kg b.w./day oral, control 97.9 ± 2.1): 92.3 ± 3.8%
% of p-CHUK positive cells/total cells/0.007 mm^2, Stroma (p-CHUK (IKK); 200 mg/kg b.w./day oral, control 83.4 ± 4.7, p < 0.01): 56.2 ± 8.3 %
% of p-CHUK positive cells/total cells/0.007 mm^2, Epithelium (p-CHUK (IKK); 200 mg/kg b.w./day oral, control 97.9 ± 2.1, p < 0.05): 76.7 ± 9.2 %
dose that elicits no adverse effects (rats): up to 2000 mg/kg daily
